Measured values reported in the supplement of paper PMC10307832.

Columns and labels:
Test in all cases: relative viability (nuclei count vs DMSO), 5 days (fraction); higher = more cells survive
[1] = compound: Cc1ccc(C(=O)N(CCCN)[C@@H](c2nc3cc(Cl)ccc3c(=O)n2Cc2ccccc2)C(C)C)cc1 [Ispinesib] + COc1cc2c(Oc3ccc(NC(=O)C4(C(=O)Nc5ccc(F)cc5)CC4)cc3F)ccnc2cc1OCCCN1CCOCC1 [Foretinib] (partner 0.25 µM)
In short: (§1)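 Lung cancer cell lines, seeded in 1536-well plates, were treated the following day by pin tool with a single drug or with five library-drug doses (not always all listed) in √10 steps on top of a fixed anchor-drug dose. Cells were fixed and nuclei stained in one step after 5 days, and nuclei were counted. Relative viability is the nuclei count for treated wells divided by that for vehicle wells, reported as medians of duplicate plates.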

[2] = compound: Cc1ccc(C(=O)N(CCCN)[C@@H](c2nc3cc(Cl)ccc3c(=O)n2Cc2ccccc2)C(C)C)cc1 [Ispinesib] + CS(=O)(=O)N1CCN(Cc2cc3nc(-c4cccc5[nH]ncc45)nc(N4CCOCC4)c3s2)CC1 [Pictilisib] (partner 1 µM)
In short: as §1

[3] = compound: Cc1ccc(C(=O)N(CCCN)[C@@H](c2nc3cc(Cl)ccc3c(=O)n2Cc2ccccc2)C(C)C)cc1 [Ispinesib] + Cc1cc(Nc2cc(N3CCN(C)CC3)nc(Sc3ccc(NC(=O)C4CC4)cc3)n2)n[nH]1 [Tozasertib] (partner 0.1 µM)
In short: as §1

[4] = compound: Cc1ccc(C(=O)N(CCCN)[C@@H](c2nc3cc(Cl)ccc3c(=O)n2Cc2ccccc2)C(C)C)cc1 [Ispinesib] + O=C(c1cc(Cc2n[nH]c(=O)c3ccccc23)ccc1F)N1CCN(C(=O)C2CC2)CC1 [Olaparib] (partner 8 µM)
In short: as §1

| Cell Line | relative viability ([1]; first compound 0.001 µM) | relative viability ([1]; first compound 0.003162 µM) | relative viability ([1]; first compound 0.01 µM) | relative viability ([1]; first compound 0.03162 µM) | relative viability ([1]; first compound 0.1 µM) | relative viability ([2]; first compound 0.001 µM) | relative viability ([2]; first compound 0.003162 µM) | relative viability ([2]; first compound 0.01 µM) | relative viability ([2]; first compound 0.03162 µM) | relative viability ([2]; first compound 0.1 µM) | relative viability ([3]; first compound 0.001 µM) | relative viability ([3]; first compound 0.003162 µM) | relative viability ([3]; first compound 0.01 µM) | relative viability ([3]; first compound 0.03162 µM) | relative viability ([3]; first compound 0.1 µM) | relative viability ([4]; first compound 0.001 µM) | relative viability ([4]; first compound 0.003162 µM) | relative viability ([4]; first compound 0.01 µM) | relative viability ([4]; first compound 0.03162 µM) | relative viability ([4]; first compound 0.1 µM) |
| --- | --- | --- | --- | --- | --- | --- | --- | --- | --- | --- | --- | --- | --- | --- | --- | --- | --- | --- | --- | --- |
| NCI-H460 | 0.901 | 0.995 | 1.13 | 0.879 | 0.0487 | 0.415 | 0.425 | 0.449 | 0.229 | 0.0764 | 0.4 | 0.577 | 0.503 | 0.417 | 0.0671 | 0.538 | 0.504 | 0.436 | 0.597 | 0.195 |
| NCI-H647 | 1.26 | 1.32 | 1.41 | 0.703 | 0.191 | 0.402 | 0.504 | 0.449 | 0.104 | 0.0557 | 0.323 | 0.201 | 0.0519 | 0.217 | 0.303 | 0.749 | 0.545 | 0.681 | 0.172 | 0.143 |
| NCI-H838 | 1.07 | 1.14 | 1.16 | 1 | 0.555 | 0.451 | 0.494 | 0.544 | 0.392 | 0.257 | 0.275 | 0.285 | 0.284 | 0.287 | 0.257 | 0.914 | 0.875 | 1.11 | 0.668 | 0.203 |
| PC-14 | 1.02 | 1.09 | 1.23 | 0.917 | 0.186 | 0.796 | 0.668 | 0.78 | 0.232 | 0.169 | 0.662 | 0.669 | 0.624 | 0.433 | 0.0644 | 0.27 | 0.141 | 0.0942 | 0.0729 | 0.144 |
| NCI-H358 | 0.694 | 0.695 | 0.702 | 0.28 | 0.123 | 0.298 | 0.359 | 0.377 | 0.227 | 0.245 | 0.1 | 0.101 | 0.0892 | 0.116 | 0.0906 | 0.624 | 0.671 | 0.761 | 0.569 | 0.214 |
| NCI-H1915 | 1.15 | 1.16 | 1.33 | 1.03 | 0.425 | 0.969 | 1.07 | 0.977 | 0.532 | 0.232 | 0.444 | 0.528 | 0.498 | 0.462 | 0.315 | 0.262 | 0.266 | 0.298 | 0.258 | 0.209 |
| 201T | 1.26 | 1.24 | 1.08 | 0.962 | 0.214 | 0.724 | 0.733 | 0.677 | 0.643 | 0.652 | 0.919 | 0.979 | 0.998 | 0.999 | 0.587 | 0.859 | 0.905 | 0.958 | 0.822 | 0.79 |
| NCI-H1437 | 1.3 | 1.39 | 1.39 | 1.27 | 0.748 | 0.46 | 0.48 | 0.477 | 0.393 | 0.207 | 0.449 | 0.442 | 0.434 | 0.378 | 0.272 | 0.685 | 0.653 | 0.763 | 0.7 | 0.256 |
| A-427 | 1.06 | 1.22 | 1.16 | 1.07 | 0.762 | 0.805 | 0.829 | 0.891 | 0.388 | 0.177 | 0.203 | 0.216 | 0.189 | 0.185 | 0.23 | 0.714 | 0.784 | 0.728 | 0.696 | 0.22 |
| HCC-366 | 0.895 | 0.959 | 0.994 | 0.913 | 0.0534 | 0.082 | 0.161 | 0.143 | 0.0978 | 0.0851 | 0.172 | 0.13 | 0.663 | 0.0791 | 0.0441 | 0.355 | 0.434 | 0.372 | 0.476 | 0.0931 |
| BEN | 0.674 | 0.96 | 0.686 | 0.342 | 0.201 | 0.581 | 0.675 | 0.542 | 0.421 | 0.222 | 0.508 | 0.464 | 0.548 | 0.633 | 0.574 | 1.03 | 1.35 | 1.13 | 0.832 | 0.782 |
| NCI-H2347 | – | 1.12 | 1.16 | 0.669 | 0.904 | 0.798 | 0.92 | 0.592 | 0.523 | 0.419 | 0.529 | 0.545 | 0.65 | 0.55 | 0.52 | 0.504 | 0.692 | 0.592 | 0.559 | 0.525 |
| LCLC-103H | 0.869 | 1.03 | 0.95 | 0.665 | 0.693 | 0.6 | 0.624 | 0.682 | 0.495 | 0.572 | 0.5 | 0.608 | 0.584 | 0.382 | 0.485 | 0.8 | 0.888 | 0.856 | 0.746 | 0.775 |
| NCI-H650 | 1.04 | 1.04 | 1.09 | 0.985 | 0.896 | 0.861 | 0.99 | 0.868 | 0.827 | 0.402 | 0.738 | 0.712 | 0.77 | 0.742 | 0.426 | 0.361 | 0.384 | 0.409 | 0.427 | 0.278 |
| NCI-H1975 | 0.996 | 0.934 | 1.05 | 0.632 | 0.144 | 0.295 | 0.276 | 0.272 | 0.153 | 0.164 | 0.964 | 0.956 | 0.795 | 0.557 | 0.215 | 0.864 | 0.802 | 0.842 | 0.922 | 0.181 |
| NCI-H2126 | 1.27 | 1.35 | 1.39 | 1.14 | 1.03 | 0.505 | 0.56 | 0.563 | 0.476 | 0.39 | 0.813 | 0.913 | 0.944 | 0.644 | 0.449 | 0.986 | 0.963 | 0.981 | 1.08 | 0.85 |
| NCI-H2087 | 1.17 | 1.14 | 1.45 | 0.901 | 0.209 | 0.94 | 0.881 | 1.13 | 0.313 | 0.187 | 0.301 | 0.246 | 0.29 | 0.261 | 0.155 | 0.708 | 0.694 | 0.801 | 0.545 | 0.145 |
